Where “and” joins values, the source holds several entries; their conditions need not be identical. Equal values may be shown once.
Key:
C57BL/6 mice = assay: Cytokine analysis in vivo (BM supernatant at day +5); design: species or system mouse; PTN: unit not given beside the values; IFN-g / IL-1a / IL-1b / IL-2 / IL-4 / IL-3 / IL-5 / IL-6 / IL-7 / IL-9 / IL-10 / IL-12(p40) / IL-12(p70) / LIF / IL-13 / LIX / IL-15 / IL-17 / IP-10 / CXCL12 / SCF / TPO / EGF / DKK / G-CSF / Eotaxin / GM-CSF / KC / MCP-1 / MIP-1a / MIP-1b / M-CSF / MIP-2 / MIG / RANTES / VEGF / TNF-a: unit not given here
Description: For in vitro cytokine measurements, 3.5 × 10^4 BM KSL cells were irradiated with 300 cGy and cultured in TSF media with and without 1 μg/mL DJ001. Non-irradiated KSL cells were cultured in TSF media with and without 1 μg/mL DJ001. At 12 h of culture, culture supernatants were collected for analysis. For in vivo cytokine measurements, adult C57BL/6 mice were irradiated with 750 cGy TBI and then treated with 5 mg/kg of DJ001 or vehicle, subcutaneously, from day + 1 to day + 5. Non-irradiated mice received the identical regimen of 5 mg/kg DJ001 or vehicle for 5 days. Mice were killed and BM cells were collected into IMDM. Cells were pelleted and the BM supernatant was collected and sent to the UCLA Immune Assessment Core for cytokine analysis. All samples were tested on a mouse 32-plex Cytokine/Chemokine panel platform from EMD Milipore using Luminex’s xMAP® immunoassay technology (Luminex, Inc.). In addition, the following cytokine levels were assessed by solid-phase ELISA assay according to the manufacturer’s description: CXCL12 (R&D Systems), SCF (R&D Systems), Thrombopoietin (TPO) (R&D Systems), PTN (Biomatik), DKK1 (R&D Systems), and EGF (R&D Systems).

[1] = system: RHOA-GTP in BM lin− cells; assay: G-LISA activation assay: RHOA-GTP; type: cell-based, mouse; settings: for RHOA-GTP level (G-LISA): Supplementary Figure 7b (left panel)
Description: (§1) The RAC1-GTP, RHOA-GTP, and CDC42-GTP activation levels in BM lin^− cells were measured using a colorimetric-based RAC1-, RHOA-, and CDC42 G-LISA Activation Assay Kit (Cytoskeleton, Inc.). BM cells from femurs and tibias were isolated from 12-week-old Ptprs^+/+ and Ptprs^−/− mice. Cells were then depleted of lineage-committed cells with Direct Lineage Cell Depletion Kit (Miltenyi Biotec, #130-110-470; 1:5). The BM lin^− cell fraction was then serum starved in Iscove’s modified Dulbecco’s medium (IMDM) and treated with either vehicle (equal amount of DMSO) or 1 μg/mL DJ001 for 10 min at 37 °C. After treatment, cells were washed with ice-cold PBS and then placed in lysis buffer supplemented with protease inhibitor. Lysate concentrations were measured by Pierce^TM BCA Protein Assay Kit (ThermoFisher Scientific). G-LISA was performed according to the manufacturer’s instructions. Briefly, 12.5 μg of lysates was added to a GTP-binding protein pre-coated plate and active RAC1-GTP, RHOA-GTP, or CDC42-GTP levels were measured at 490 nm using a PowerWave XS2 microplate reader (BioTek).

[2] = system: CDC42-GTP in BM lin− cells; assay: G-LISA activation assay: CDC42-GTP; type: cell-based, mouse; settings: for CDC42-GTP level (G-LISA): Supplementary Figure 7b (right panel)
Description: as §1

[3] = biological target: T1, SHP-2 (Protein-Tyrosine Phosphatase 2C) (Homo sapiens, UniProt Q06124); assay: PhosphataseProfiler screen: SHP-2; type: biochemical; settings: replicates
T1 construct: purchased Eurofins Pharma Discovery Services UK
Description: (§2) Compound DJ001 was evaluated in a PhosphataseProfiler™ screen at 10 μM and 1 μM (2.7 μg/mL and 0.27 μg/mL) concentrations at Eurofins Pharma Discovery Services UK (Study number UK022-0004033) against a panel of 21 Phosphatases. In each experiment, the respective reference antagonist/agonist was tested directly with DJ001 and the data were compared with historical values determined at Eurofins. DJ001 compound inhibition was calculated as percentage inhibition of the enzymatic activity compared with control.

[4] = biological target: T2, TMDP (Dual Specificity Phosphatase 13) (Homo sapiens, UniProt Q9UII6); assay: PhosphataseProfiler screen: TMDP; type: biochemical; settings: replicates
T2 construct: purchased Eurofins Pharma Discovery Services UK
Description: as §2

[5] = 750cGy, Supplementary Figure 6c
[6] = 750cGy, Supplementary Figure 6d
[7] = NI (non-irradiated), Supplementary Figure 6c
[8] = NI (non-irradiated), Supplementary Figure 6d
[9] = BM lin− cells, 1 μg/mL DJ001, 10 min

T1 sequence (Q06124 whole entry, species assumed): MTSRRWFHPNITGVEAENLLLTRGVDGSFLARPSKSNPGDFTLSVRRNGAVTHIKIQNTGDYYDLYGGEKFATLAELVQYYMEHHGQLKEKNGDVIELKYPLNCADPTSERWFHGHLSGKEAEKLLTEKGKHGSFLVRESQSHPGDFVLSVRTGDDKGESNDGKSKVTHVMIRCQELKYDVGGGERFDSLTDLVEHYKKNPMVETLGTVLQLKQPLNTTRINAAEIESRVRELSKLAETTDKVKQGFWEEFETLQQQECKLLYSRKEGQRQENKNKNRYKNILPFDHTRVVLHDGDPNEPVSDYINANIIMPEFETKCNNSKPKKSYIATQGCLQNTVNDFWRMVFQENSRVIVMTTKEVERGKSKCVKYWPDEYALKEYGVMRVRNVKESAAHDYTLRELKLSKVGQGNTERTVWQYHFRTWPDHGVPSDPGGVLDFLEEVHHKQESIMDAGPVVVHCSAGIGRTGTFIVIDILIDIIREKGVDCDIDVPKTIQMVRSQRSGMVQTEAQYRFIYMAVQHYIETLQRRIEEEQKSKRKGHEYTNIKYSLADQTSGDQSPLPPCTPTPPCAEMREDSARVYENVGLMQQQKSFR
T2 sequence (Q9UII6 whole entry, species assumed): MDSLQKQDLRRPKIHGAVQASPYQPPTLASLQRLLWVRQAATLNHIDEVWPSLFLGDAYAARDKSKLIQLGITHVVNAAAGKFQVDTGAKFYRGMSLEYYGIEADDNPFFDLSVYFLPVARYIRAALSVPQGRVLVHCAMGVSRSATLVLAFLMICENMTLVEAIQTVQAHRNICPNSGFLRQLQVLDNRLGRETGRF

O=C(/C=C\Nc1cccc([N+](=O)[O-])c1)c1ccccc1 [DJ001, (Z)-3-((3-nitrophenyl)amino)-1-phenylprop-2-en-1-one]
cytokine levels in BM of non-irradiated mice (C57BL/6 mice; 5 mg/kg DJ001 for 5 days): no effects on cytokine levels
IFN-g (C57BL/6 mice; [5]): 0.02
IL-1a (C57BL/6 mice; [5]): 32.33 and 26.87 and 17.68
IL-2 (C57BL/6 mice; [5]): 1.59 and 2.65 and 1.92
IL-3 (C57BL/6 mice; [5]): 1.4
IL-4 (C57BL/6 mice; [5]): 1.41
IL-5 (C57BL/6 mice; [5]): 3.23 and 2.28
IL-6 (C57BL/6 mice; [5]): 1.83 and 1.7
IL-9 (C57BL/6 mice; [5]): 198.07 and 228.02 and 160.28
IL-10 (C57BL/6 mice; [5]): 0.57
IL-12(p40) (C57BL/6 mice; [5]): 0.61
IL-12(p70) (C57BL/6 mice; [5]): 3.18
IL-13 (C57BL/6 mice; [5]): 7.43
IL-15 (C57BL/6 mice; [5]): 2.73
IL-17 (C57BL/6 mice; [5]): 0.09
IP-10 (C57BL/6 mice; [5]): 44.2 and 47.75 and 46.43
LIX (C57BL/6 mice; [5]): 516.55 and 495.26 and 507.12
CXCL12 (C57BL/6 mice; [6]): 552 and 624 and 905
DKK (C57BL/6 mice; [6]): 169.52 and 249.19 and 307.94
EGF (C57BL/6 mice; [6]): 11.77 and 17.58 and 11.6
Eotaxin (C57BL/6 mice; [6]): 67.39 and 68.27 and 79.6
G-CSF (C57BL/6 mice; [6]): 64.72 and 76.01 and 58.45
GM-CSF (C57BL/6 mice; [6]): 15.66
KC (C57BL/6 mice; [6]): 22.82 and 26.89 and 24.21
MCP-1 (C57BL/6 mice; [6]): 8.72 and 10.08 and 6.75
MIG (C57BL/6 mice; [6]): 128.05 and 148.17 and 148.91
MIP-1a (C57BL/6 mice; [6]): 29.47 and 26.14
MIP-1b (C57BL/6 mice; [6]): 3.05
PTN (C57BL/6 mice; [6]): 102.04 and 118.97 and 192.81
RANTES (C57BL/6 mice; [6]): 2.96 and 2.94
SCF (C57BL/6 mice; [6]): 146.274 and 131.091 and 159.522
TNF-a (C57BL/6 mice; [6]): 3.15
TPO (C57BL/6 mice; [6]): 49.177 and 67.682 and 63.573
VEGF (C57BL/6 mice; [6]): 1.01 and 1.11
IL-1b (C57BL/6 mice; [7]): 0.97
IL-3 (C57BL/6 mice; [7]): 1.4
IL-4 (C57BL/6 mice; [7]): 1.41
IL-5 (C57BL/6 mice; [7]): 2.28
IL-7 (C57BL/6 mice; [7]): 0.9937 and 1.153
IL-10 (C57BL/6 mice; [7]): 1.167 and 1.4327
IL-12(p40) (C57BL/6 mice; [7]): 0.74
IL-12(p70) (C57BL/6 mice; [7]): 3.18
IL-13 (C57BL/6 mice; [7]): 7.43 and 9.117
IL-15 (C57BL/6 mice; [7]): 2.73
IL-17 (C57BL/6 mice; [7]): 0.21
IP-10 (C57BL/6 mice; [7]): 33.483 and 30.0231 and 37.7364
LIF (C57BL/6 mice; [7]): 0.3842
LIX (C57BL/6 mice; [7]): 761.708 and 684.296 and 1083.25
CXCL12 (C57BL/6 mice; [8]): 622.694 and 560.08 and 714.605
DKK (C57BL/6 mice; [8]): 277.711 and 227.737 and 332.999
EGF (C57BL/6 mice; [8]): 2.362 and 1.271 and 1.363
Eotaxin (C57BL/6 mice; [8]): 99.795 and 115.637 and 94.9841
G-CSF (C57BL/6 mice; [8]): 0.02
GM-CSF (C57BL/6 mice; [8]): 15.66
KC (C57BL/6 mice; [8]): 2.085 and 1.462 and 2.044
M-CSF (C57BL/6 mice; [8]): 2.427 and 3.036 and 4.571
MCP-1 (C57BL/6 mice; [8]): 3.63 and 5.244
MIG (C57BL/6 mice; [8]): 98.9578 and 70.0219 and 103.204
MIP-1b (C57BL/6 mice; [8]): 7.1682 and 4.315
MIP-2 (C57BL/6 mice; [8]): 21.5628 and 31.4245 and 16.3073
PTN (C57BL/6 mice; [8]): 163.391 and 261.361 and 175.154
RANTES (C57BL/6 mice; [8]): 4.272 and 4.763 and 5.943
SCF (C57BL/6 mice; [8]): 23.6572 and 17.6223 and 24.6635
TNF-a (C57BL/6 mice; [8]): 3.15
TPO (C57BL/6 mice; [8]): 7.2054 and 5.699 and 7.158
VEGF (C57BL/6 mice; [8]): 1.293 and 2.139 and 2.31
CXCL12 levels in BM of irradiated mice vs vehicle (C57BL/6 mice; day +5 following 750 cGy TBI): modest increase in CXCL12 levels
PTN levels in BM of irradiated mice vs vehicle (C57BL/6 mice; day +5 following 750 cGy TBI): decrease in PTN levels
activation of RhoA [1, 9]: did not alter the activation
RHOA-GTP level (G-LISA) ([1]; Ptprs+/+ cells): 0.1099 and 0.0821 and 0.1369
RHOA-GTP level (G-LISA) ([1]; Ptprs-/- cells): 0.1117 and 0.0668 and 0.0845
activation of CDC42 [2, 9]: did not alter the activation
CDC42-GTP level (G-LISA) ([2]; Ptprs+/+ cells): 0.2383 and 0.2517 and 0.2371
CDC42-GTP level (G-LISA) ([2]; Ptprs-/- cells): 0.1634 and 0.1869 and 0.1735
Supplementary Figure 1: SHP-2 activity ([3]; 0.27 μg/mL DJ001): 99 and 96 and 102
Supplementary Figure 1: SHP-2 activity ([3]; 2.7 μg/mL DJ001): 87 and 90 and 94
Supplementary Figure 1: TMDP activity ([4]; 2.7 μg/mL DJ001): 101
Supplementary Figure 1: TMDP activity ([4]; 0.27 g/mL DJ001): 108 and 103 (2×)

Source: paper PMC6694155, “PTPσ inhibitors promote hematopoietic stem cell regeneration” (Nature Communications, 2019)
